Data: patent US4954514A, “(Di-tert-butylhydroxyphenyl)thio derivatives and antiarterioschlerosis compositions thereof” (Shionogi & Co, Ltd, priority 1989, dated 1990)

Tests used:
[1] = test system: peroxidized lipid in a homogenate of rat brain; test: Suppression on production of peroxidized lipid in a homogenate of rat brain (thiobarbituric acid (TBA) method); format: biochemical, SD strain rats; conditions: final concentration 0.01 mM, 37° C., 30 minutes, % of vehicle control
Protocol: Suppression on production of peroxidized lipid in a homogenate of rat brain:
SD strain rats (body weight, about 200 g) were sacrificed by cutting down their heads, and the brains were taken out. The brains were homogenated with a 4-fold amount of 0.05M phosphate-sodium chloride buffer (pH 7.4) and centrifuged at 1000×g for 10 minutes. The supernatant was kept at -80° C. for storage.
The supernatant was diluted with a 2-fold amount of the same phosphate - sodium chloride buffer as above, and 0.48 ml of the dilution was combined with 30 μl of ethanol per se (vehicle) or ethanol solution containing a test compound (final concentration: 0.01 mM), followed by incubation at 37° C. for 30 minutes. The reaction was terminated by addition of 0.01% butylhydroxytoluene (BHT) in ethanol (20 μl) and 25% metaphosphoric acid (125 μl) and subjected to elimination of proteins. The peroxidized lipid in the supernatant was measured by the thiobarbituric acid (TBA) method according to the description in Ohkawa et al.: Anal. Biochem., vol. 95, page 351 (1979). The amount of peroxidized lipid produced was compared with that in the vehicle applied group and expressed in % control.

[2] = test system: hydrochloric acid ethanol-induced gastric ulcer; test: Effect against hydrochloric acid ethanol-induced gastric ulcer; format: in vivo, male JCD-SD rats; conditions: rat, oral, 30 minutes before hydrochloric acid-ethanol; from lesion index; dose not given
Protocol: Effect against hydrochloric acid ethanol-induced gastric ulcer.
To male JCD-SD rats (weight: 220-275 g) which have been fasted for 24 hours was administered orally 1 ml of 150 mM hydrochloric acid - 60% ethanol. After an hour, the stomachs were excised. The ulcer size as determined by measuring the length of each lesion under stereoscopic microscope and the sum of individual lesion length is expressed as lesion index. The vehicle (1% to 10% ethanol) and the test compounds were administered orally 30 minutes before the hydrochloric acid -ethanol administration. The percent suppression was calculated from the lesion indexes of treated versus untreated animals.

Row | SMILES | Peroxidized Lipid Produced (Expressed in % to Control) [1] [%] | Inhibitory Rate (Expressed in % to Control) [2] [%]
1 | CC(C)(C)c1cc(SCCCCCCc2nnn[nH]2)cc(C(C)(C)C)c1O [Ii, 5-[6-(3,5-Di-tert-butyl-4-hydroxy)phenylthiohexyl]tetrazole] | 4.4 | 46.6 ± 13.4
2 | CC(C)(C)c1cc(SCCCC#N)cc(C(C)(C)C)c1O [Ia, 4-(3,5-Di-tert-butyl-4-hydroxy)phenylthiobutylonitrile] | 4.5 | 94.3 ± 14.8
3 | CC(C)(C)c1cc(SCCCCCc2nnn[nH]2)cc(C(C)(C)C)c1O [Ih, 5-[5-(3,5-Di-tert-butyl-4-hydroxy)phenylthiopentyl]tetrazole] | 9.5 | 52.5 ± 16.6
4 | CC(C)(C)c1cc(SCCc2nnn[nH]2)cc(C(C)(C)C)c1O [Ie, 5-[2-(3,5-Di-tert-butyl-4-hydroxy)phenylthioethyl]tetrazole] | 8.1 | 37.2 ± 5.9
5 | CC(C)(C)c1cc(SCCCCC#N)cc(C(C)(C)C)c1O [Ib, 5-(3,5-Di-tert-butyl-4-hydroxy)phenylthiopentanonitrile] | 3.6 | 61.2 ± 18.4
6 | CC(C)(C)c1cc(SCCCCCC(N)=O)cc(C(C)(C)C)c1O [Ij, 6-(3,5-Di-tert-butyl-4-hydroxy)phenylthiohexanamide] | 4.7 | 70.8 ± 8.5
7 | CC(C)(C)c1cc(SCCCCCC#N)cc(C(C)(C)C)c1O [Ic, 6-(3,5-Di-tert-butyl-4-hydroxy)phenylthiohexanonitrile] | 9.2 | 19.2 ± 8.4
8 | CC(C)(Sc1cc(C(C)(C)C)c(O)c(C(C)(C)C)c1)Sc1cc(C(C)(C)C)c(O)c(C(C)(C)C)c1 [Probucol, reference compound] | 58.3 | 75.4 ± 22.1
9 | CC(C)(C)c1cc(SCCCc2nnn[nH]2)cc(C(C)(C)C)c1O [If, 5-[3-(3,5-Di-tert-butyl-4-hydroxy)phenylthiopropyl]tetrazole] | 5.7 | 52.1 ± 20.0
10 | CC(C)(C)c1cc(SCCCCCCC#N)cc(C(C)(C)C)c1O [Id, 7-(3,5-Di-tert-butyl-4-hydroxy)phenylthioheptanonitrile] | 5.4 | 77.3 ± 16.8
11 | CC(C)(C)c1cc(SCCCCc2nnn[nH]2)cc(C(C)(C)C)c1O [Ig, 5-[4-(3,5-Di-tert-butyl-4-hydroxy)phenylthiobutyl]tetrazole] | 4.1 | 49.2 ± 13.0
